Test results reported in ChEMBL document CHEMBL5143655, “Synthesis and biological evaluation of 1,2,4-triazole derivatives as potential Nrf2 activators for the treatment of cerebral ischemic injury” (Eur J Med Chem, 2022).

Key:
PC-12 [1] = assay: Neuroprotective activity against SNP induced rat PC-12 cells assessed as increase in cell viability at 10 uM preincubated for 2 hrs followed by SNP stimulation for 24 hrs by MTT assay relative to control; assay type: functional
PC-12 [2] = assay: Neuroprotective activity against SNP induced rat PC-12 cells assessed as increase in cell viability at 5 uM preincubated for 2 hrs followed by SNP stimulation for 24 hrs by MTT assay relative to control; assay type: functional
PC-12 [3] = assay: Neuroprotective activity against SNP induced rat PC-12 cells assessed as increase in cell viability at 1 uM preincubated for 2 hrs followed by SNP stimulation for 24 hrs by MTT assay relative to control; assay type: functional
Rattus norvegicus = assay: Neuroprotective activity in Sprague-Dawley rat model of middle cerebral artery occlusion-induced ischemia-reperfusion injury assessed as decrease in cerebral infarct volume at 5 mg/kg, ip preincubated for 1 hrs followed by MCAO operation and further incubated with compound for 4 hrs after reperfusion by TTC staining based assay; assay type: functional; set-up: scale not given: the % may be the effect or the level left; details: time 5 hrs
[4] = Metabolic stability in human plasma assessed as parent compound remaining at 200 uM measured after 15 min by LC-MS/MS analysis relative to control; assay type: ADME, cell-free; details: read-out: Stability
[5] = Metabolic stability in human plasma assessed as parent compound remaining at 200 uM measured after 60 min by LC-MS/MS analysis relative to control; assay type: ADME, cell-free; details: read-out: Stability
[6] = Metabolic stability in human plasma assessed as parent compound remaining at 200 uM measured after 90 min by LC-MS/MS analysis relative to control; assay type: ADME, cell-free; details: read-out: Stability
[7] = Metabolic stability in human plasma assessed as parent compound remaining at 200 uM measured after 120 min by LC-MS/MS analysis relative to control; assay type: ADME, cell-free; details: read-out: Stability
[8] = Metabolic stability in human plasma assessed as half life at 200 uM by LC-MS/MS analysis relative to control; assay type: ADME, cell-free
[9] = Cytotoxicity against human HaCaT cells assessed as reduction in cell viability by MTT assay; assay type: toxicity, cell-based
[10] = Cytotoxicity against rat PC-12 cells assessed as reduction in cell viability by MTT assay; assay type: toxicity, cell-based
[11] = Plasma protein binding in human plasma at 10 uM incubated for 6 hrs by LC-MS/MS based equilibrium dialysis method; assay type: ADME, cell-free; details: read-out: PPB (converted)
[12] = Plasma protein binding in Sprague-Dawley rat plasma at 10 uM incubated for 6 hrs by LC-MS/MS based equilibrium dialysis method; assay type: ADME, cell-free; details: read-out: PPB (converted)

Row | SMILES | Activity (PC-12 [1]) | Activity (PC-12 [2]) | Activity (PC-12 [3]) | IC50 [9] | IC50 [10] | other results
1 | Oc1cc(C(F)(F)F)ccc1-c1nc(-c2ccccc2O)n(-c2ccccc2Cl)n1 | 102.19% | 90.63% | 70.08% |  |  | 
2 | COc1ccccc1-n1nc(-c2ccc(C(F)(F)F)cc2O)nc1-c1ccccc1O | 96.2% | 85.59% | 70.74% |  |  | 
3 | CC1=NN(c2ccccc2)C(=O)C1 [EDARAVONE] | 80.25% | 70.3% | 58.41% |  |  | Activity (Rattus norvegicus): 12.77%
4 | CC(C)[N+](C)(CCOC(=O)C1c2ccccc2Oc2ccccc21)C(C)C [PROPANTHELINE] |  |  |  |  |  | remaining at 0.25 h, 200 µM [4]: 63.4%; remaining at 1 h, 200 µM [5]: 34.5%; remaining at 1.5 h, 200 µM [6]: 17.3%; remaining at 2 h, 200 µM [7]: 2.41%; half-life at 200 µM [8]: 23.5 min
5 | Oc1ccccc1-c1nc(-c2ccc(C(F)(F)F)cc2)no1 | 84.7% | 81.39% | 75.88% |  |  | 
6 | Cc1ccc(-n2nc(-c3ccc(C(F)(F)F)cc3O)nc2-c2ccccc2O)c(C)c1 | 106.25% | 93.31% | 73.72% | 94.8 µM | 230 µM | 
7 | Oc1cc(C(F)(F)F)ccc1-c1nc(-c2ccccc2O)n(-c2ccccc2F)n1 | 100.18% | 86.63% | 63.42% |  |  | 
8 | Oc1cc(C(F)(F)F)ccc1-c1nc(-c2ccccc2O)n(-c2cccc(C(F)(F)F)c2)n1 | 99.9% | 92.2% | 71.47% | 54.3 µM | 49.7 µM | 
9 | Oc1cc(C(F)(F)F)ccc1-c1nc(-c2ccccc2O)n(-c2cccc(F)c2)n1 | 98.25% | 87.66% | 67.24% |  |  | 
10 | Oc1cc(C(F)(F)F)ccc1-c1nc(-c2ccccc2O)n(-c2ccc(Cl)cc2Cl)n1 | 95.21% | 86.73% | 68.99% |  |  | 
11 | Oc1cc(C(F)(F)F)ccc1-c1nc(-c2ccccc2O)n(-c2ccc(Cl)cc2)n1 | 96.09% | 87.25% | 67.99% |  |  | 
12 | CCc1ccc(-n2nc(-c3ccc(C(F)(F)F)cc3O)nc2-c2ccccc2O)cc1 | 106.61% | 95.36% | 64.43% | 57 µM | 147 µM | 
13 | N#Cc1ccc(-n2nc(-c3ccc(C(F)(F)F)cc3O)nc2-c2ccccc2O)cc1 | 98.91% | 86.8% | 66.6% |  |  | 
14 | Oc1cc(C(F)(F)F)ccc1-c1nc(-c2ccccc2O)n(-c2ccccc2C(F)(F)F)n1 | 92.2% | 80.01% | 70.97% |  |  | 
15 | Oc1cc(C(F)(F)F)ccc1-c1nc(-c2ccccc2O)n(-c2ccc(OC(F)(F)F)cc2)n1 | 92.54% | 84.94% | 65.49% |  |  | 
16 | CC(C)c1ccc(-n2nc(-c3ccc(C(F)(F)F)cc3O)nc2-c2ccccc2O)cc1 | 108% | 100.41% | 69.66% | 51.4 µM | 144 µM | 
17 | COc1ccc(-n2nc(-c3ccc(C(F)(F)F)cc3O)nc2-c2ccccc2O)cc1 | 98.85% | 86.56% | 69.04% |  |  | 
18 | Oc1cc(C(F)(F)F)ccc1-c1nc(-c2ccccc2O)n(-c2cc(F)cc(F)c2)n1 | 106.29% | 100.23% | 75.47% | 45.4 µM | 53.7 µM | 
19 | CC(C)(C)c1ccc(-n2nc(-c3ccc(C(F)(F)F)cc3O)nc2-c2ccccc2O)cc1 | 81.14% | 77.77% | 67.29% |  |  | 
20 | Oc1cc(C(F)(F)F)ccc1-c1nc(-c2ccccc2O)n(-c2cccc(Cl)c2)n1 | 100.29% | 92.73% | 72.33% |  |  | 
21 | Oc1cc(C(F)(F)F)ccc1-c1nc(-c2ccccc2O)n(-c2ccc(F)cc2F)n1 | 97.86% | 83.53% | 65.92% |  |  | 
22 | CC(=O)N1CCN(c2ccc(OCC3COC(Cn4ccnc4)(c4ccc(Cl)cc4Cl)O3)cc2)CC1 (configuration not stated) [KETOCONAZOLE] |  |  |  |  |  | fraction unbound at 6 h, 10 µM [11]: 0.0128; fraction unbound at 6 h, 10 µM [12]: 0.0032
23 | COc1cccc(-n2nc(-c3ccc(C(F)(F)F)cc3O)nc2-c2ccccc2O)c1 | 105.81% | 96.76% | 68.27% | 81.1 µM | 56.4 µM | 
24 | Oc1cc(C(F)(F)F)ccc1-c1nc(-c2ccccc2O)n(-c2ccc(C(F)(F)F)cc2)n1 | 101.67% | 90.51% | 70.66% |  |  | 
25 | Oc1cc(C(F)(F)F)ccc1-c1nc(-c2ccccc2O)n(-c2ccc(Br)cc2)n1 | 100.49% | 89.76% | 69.35% | 29.6 µM | 66.8 µM | 
26 | Oc1cc(C(F)(F)F)ccc1-c1nc(-c2ccccc2O)n(-c2ccc(F)cc2)n1 | 99.83% | 86.71% | 67.16% |  |  | 
27 | Oc1cc(C(F)(F)F)ccc1-c1nc(-c2ccccc2O)n(-c2cc(C(F)(F)F)cc(C(F)(F)F)c2)n1 | 86.16% | 75.68% | 68.89% |  |  | 
28 | Oc1cc(C(F)(F)F)ccc1-c1nc(-c2ccccc2O)n(-c2ccc(I)cc2)n1 | 104.51% | 94.41% | 70.13% | 32.1 µM | 73.3 µM | 
29 | Cc1ccc(-n2nc(-c3ccc(C(F)(F)F)cc3O)nc2-c2ccccc2O)cc1 | 102.45% | 94.12% | 71.49% | 81.8 µM | 113 µM | 
